Measurements from the NIST ThermoML archive (doi:10.1021/je5004719).
Numbers after ± are expanded uncertainties.

Assay: xn = mol fraction of the nth substance listed
Conditions: 101 kPa, Liquid; for speed of sound: Sing-around technique in a fixed-path interferometer; for mass density: Vibrating tube method

Cc1ccccc1Cl [2-chlorotoluene] + Cc1ccccc1
Conditions | mass density, 298.15 K [kg/m3] | mass density, 303.15 K [kg/m3] | mass density, 308.15 K [kg/m3] | speed of sound, 298.15 K [m/s] | speed of sound, 303.15 K [m/s] | speed of sound, 308.15 K [m/s]
x1 = 0.0935 | 884.2 ± 1 | 879.51 ± 1 | 874.8 ± 1 | 1302 ± 0.8 | 1281.3 ± 0.8 | 1260.6 ± 0.8
x1 = 0.1346 | 893.74 ± 1 | 889.04 ± 1 | 884.33 ± 1 | 1301.2 ± 0.8 | 1280.6 ± 0.8 | 1260.2 ± 0.8
x1 = 0.1681 | 901.47 ± 1 | 896.76 ± 1 | 892.04 ± 1 | 1300.5 ± 0.9 | 1280.2 ± 0.8 | 1259.9 ± 0.8
x1 = 0.2393 | 917.7 ± 1 | 912.99 ± 1 | 908.26 ± 1 | 1299.5 ± 0.9 | 1279.4 ± 0.9 | 1259.3 ± 0.9
x1 = 0.2782 | 926.47 ± 1 | 921.75 ± 1 | 917.02 ± 1 | 1299 ± 0.9 | 1279 ± 0.9 | 1259 ± 0.9
x1 = 0.3342 | 938.97 ± 1 | 934.25 ± 1 | 929.51 ± 1 | 1298.5 ± 0.9 | 1278.7 ± 0.9 | 1258.8 ± 0.9
x1 = 0.3871 | 950.65 ± 1 | 945.92 ± 1 | 941.17 ± 1 | 1298.1 ± 0.9 | 1278.5 ± 0.9 | 1258.7 ± 0.9
x1 = 0.4375 | 961.66 ± 1 | 956.92 ± 1 | 952.17 ± 1 | 1297.9 ± 0.9 | 1278.3 ± 0.9 | 1258.7 ± 0.9
x1 = 0.4872 | 972.41 ± 1 | 967.66 ± 1 | 962.89 ± 1 | 1297.7 ± 0.9 | 1278.3 ± 0.9 | 1258.8 ± 0.9
x1 = 0.5312 | 981.84 ± 1 | 977.07 ± 1 | 972.3 ± 1 | 1297.6 ± 0.9 | 1278.3 ± 0.9 | 1259 ± 0.9
x1 = 0.5912 | 994.55 ± 1 | 989.78 ± 1 | 984.99 ± 1 | 1297.4 ± 0.9 | 1278.4 ± 0.9 | 1259.3 ± 0.9
x1 = 0.6218 | 1001 ± 1 | 996.2 ± 1 | 991.4 ± 1 | 1297.4 ± 0.9 | 1278.5 ± 0.9 | 1259.5 ± 0.9
x1 = 0.6753 | 1012.1 ± 1 | 1007.3 ± 1 | 1002.5 ± 1 | 1297.4 ± 0.9 | 1278.7 ± 0.9 | 1260 ± 0.9
x1 = 0.7231 | 1022 ± 1 | 1017.2 ± 1 | 1012.3 ± 1 | 1297.4 ± 0.9 | 1278.9 ± 0.9 | 1260.4 ± 0.9
x1 = 0.7854 | 1034.7 ± 1 | 1029.9 ± 1 | 1025 ± 1 | 1297.6 ± 0.9 | 1279.2 ± 0.9 | 1261 ± 0.9
x1 = 0.8351 | 1044.7 ± 1 | 1039.9 ± 1 | 1035 ± 1 | 1297.7 ± 0.9 | 1279.5 ± 0.9 | 1261.5 ± 0.9
x1 = 0.8824 | 1054.2 ± 1 | 1049.3 ± 1 | 1044.5 ± 1 | 1297.9 ± 0.9 | 1279.8 ± 0.9 | 1262 ± 0.9
x1 = 0.9231 | 1062.3 ± 1 | 1057.4 ± 1 | 1052.5 ± 1 | 1298.1 ± 1 | 1280.1 ± 0.9 | 1262.3 ± 0.9
